Each structure is given as a SMILES string.

The target in this test is human TYK2 (JH2domain-pseudokinase) (Homo sapiens (Human), UniProt P29597). The experiment in a line: TYK2 JH2 Domain Binding Assay (KINOMEscan, DiscoveRx). The following applies: 11-point dilution, duplicate. In outline: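 Kd from duplicate 11-point 3-fold dilutions starting at 30,000 nM, fitted by Hill equation with slope fixed at −1. Compounds (final 0.9% DMSO) displace DNA-tagged HEK293-expressed TYK2 JH2 fusion (<0.1 nM) from ligand-coated beads over 1 h at room temperature; eluted kinase read by qPCR.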
human TYK2 (JH2domain-pseudokinase), sequence (P29597 556-888): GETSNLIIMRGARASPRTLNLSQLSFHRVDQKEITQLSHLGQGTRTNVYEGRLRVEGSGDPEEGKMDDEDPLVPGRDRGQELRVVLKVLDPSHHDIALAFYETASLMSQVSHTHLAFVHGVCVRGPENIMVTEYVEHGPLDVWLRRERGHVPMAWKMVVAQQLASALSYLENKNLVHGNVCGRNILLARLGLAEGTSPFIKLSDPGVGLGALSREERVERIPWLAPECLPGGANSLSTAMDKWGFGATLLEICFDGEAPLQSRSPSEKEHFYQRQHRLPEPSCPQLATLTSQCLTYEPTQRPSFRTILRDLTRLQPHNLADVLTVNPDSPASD
`COc1c(Nc2cc(Nc3ccc(N4CC[C@H](OC)C4)c(C#N)n3)nc3[nH]c(C)nc23)cccc1-c1nnn(C)n1` [I-112, (S)-6-((7-((2-methoxy-3-(2-methyl-2H-tetrazol-5-yl)phenyl)amino)-2-methyl-3H-imidazo[4,5-b]pyridin-5-yl)amino)-3-(3-methoxypyrrolidin-1-yl)picolinonitrile]: the Kd (commonly a measure of binding affinity in units of concentration) lay within 0.1 to 0.5 nM.
`COc1c(Nc2cc(Nc3ccc(N4CCC4)c(C#N)n3)nc3[nH]c(C)nc23)cccc1-c1nnn(C)n1` [I-113, 3-(azetidin-1-yl)-6-((7-((2-methoxy-3-(2-methyl-2H-tetrazol-5-yl)phenyl)amino)-2-methyl-3H-imidazo[4,5-b]pyridin-5-yl)amino)picolinonitrile] yielded a Kd of 0.1 to 0.5 nM.
The compound `COc1c(Nc2cc(NC(=O)C3CC3)nc3[nH]c(C)nc23)cccc1-c1nc(C)nn1C` [I-114, N-(7-((3-(1,3-dimethyl-1H-1,2,4-triazol-5-yl)-2-methoxyphenyl)amino)-2-methyl-3H-imidazo[4,5-b]pyridin-5-yl)cyclopropanecarboxamide] returned a Kd of 1 to 10 nM.
In turn, `COc1c(Nc2cc(Nc3ccc(C(C)C)c(C#N)n3)nc3[nH]c(C)nc23)cccc1-c1nnn(C)n1` [I-115, 3-isopropyl-6-((7-((2-methoxy-3-(2-methyl-2H-tetrazol-5-yl)phenyl)amino)-2-methyl-3H-imidazo[4,5-b]pyridin-5-yl)amino)picolinonitrile] gave a Kd of 1 to 10 nM.
With `COc1c(Nc2cc(Nc3cnc(N4CCOCC4)c(C#N)n3)nc3[nH]c(C)nc23)cccc1-c1nnn(C)n1` [I-116, 6-((7-((2-methoxy-3-(2-methyl-2H-tetrazol-5-yl)phenyl)amino)-2-methyl-3H-imidazo[4,5-b]pyridin-5-yl)amino)-3-morpholinopyrazine-2-carbonitrile], the Kd lay in the range of 1 to 10 nM.
Consider `COc1c(Nc2cc(Nc3cnc(N4CC[C@@H](OC)C4)c(C#N)n3)nc3[nH]c(C)nc23)cccc1-c1nnn(C)n1` [I-117, (R)-6-((7-((2-methoxy-3-(2-methyl-2H-tetrazol-5-yl)phenyl)amino)-2-methyl-3H-imidazo[4,5-b]pyridin-5-yl)amino)-3-(3-methoxypyrrolidin-1-yl)pyrazine-2-carbonitrile], for which the Kd was in the range of 1 to 10 nM.
Under `Cc1ccc(Nc2cc(Nc3ccccc3N(C)S(C)(=O)=O)c3nc(C)[nH]c3n2)nn1` [I-118, N-methyl-N-(2-((2-methyl-5-((6-methylpyridazin-3-yl)amino)-3H-imidazo[4,5-b]pyridin-7-yl)amino)phenyl)methanesulfonamide] stands 0.1 to 0.5 nM.
In the case of `Cc1nc2c(Nc3ccccc3N(C)S(C)(=O)=O)cc(Nc3cccc(C#N)n3)nc2[nH]1` [I-120, N-(2-((5-((6-cyanopyridin-2-yl)amino)-2-methyl-3H-imidazo[4,5-b]pyridin-7-yl)amino)phenyl)-N-methylmethanesulfonamide] it was less than 0.1 nM.
In the case of `COC1CN(c2ccc(Nc3cc(NC(=O)C4CC4)nc4[nH]c(C)nc34)c(N(C)S(C)(=O)=O)c2)C1` [I-122, N-(7-((4-(3-methoxyazetidin-1-yl)-2-(N-methylmethylsulfonamido)phenyl)amino)-2-methyl-3H-imidazo[4,5-b]pyridin-5-yl)cyclopropanecarboxamide] it was 1 to 10 nM.
On to `Cc1nc2c(Nc3ccccc3N(C)S(C)(=O)=O)cc(Nc3cnc(C)c(C)n3)nc2[nH]1` [I-123, N-(2-((5-((5,6-dimethylpyrazin-2-yl)amino)-2-methyl-3H-imidazo[4,5-b]pyridin-7-yl)amino)phenyl)-N-methylmethanesulfonamide], for which the Kd was 0.1 to 0.5 nM.
Turning to `Cc1cc(Nc2cc(Nc3ccccc3N(C)S(C)(=O)=O)c3nc(C)[nH]c3n2)nc(C)n1` [I-124, N-(2-((5-((2,6-dimethylpyrimidin-4-yl)amino)-2-methyl-3H-imidazo[4,5-b]-pyridin-7-yl)amino)phenyl)-N-methylmethanesulfonamide], the Kd was 0.1 to 0.5 nM.
With `Cc1nc2c(Nc3ccccc3N(C)S(C)(=O)=O)cc(Nc3ccc(C)c(C#N)n3)nc2[nH]1` [I-125, N-(2-((5-((6-cyano-5-methylpyridin-2-yl)amino)-2-methyl-3H-imidazo[4,5-b]pyridin-7-yl)amino)phenyl)-N-methylmethanesulfonamide], the Kd was in the range of 0.1 to 0.5 nM.
Regarding `Cc1nc2c(Nc3ccc(Cl)cc3S(C)(=O)=O)cc(NC(=O)C3CC3)nc2[nH]1` [I-126, N-(7-((4-chloro-2-(methylsulfonyl)phenyl)amino)-2-methyl-3H-imidazo[4,5-b]pyridin-5-yl)cyclopropanecarboxamide], the Kd fell in the range of 0.1 to 0.5 nM.
Under `Cc1nc2c(Nc3ccccc3N(C)S(C)(=O)=O)cc(Nc3cccc(C(F)(F)F)n3)nc2[nH]1` [I-127, N-methyl-N-(2-((2-methyl-5-((6-(trifluoromethyl)pyridin-2-yl)amino)-3H-imidazo[4,5-b]pyridin-7-yl)amino)phenyl)methanesulfonamide] stands 0.1 to 0.5 nM; under `COc1c(Nc2cc(NC(=O)C3CC3)nc3[nH]c(C)nc23)cccc1-n1cnc(C)n1` [I-128, N-(7-((2-methoxy-3-(3-methyl-1H-1,2,4-triazol-1-yl)phenyl)amino)-2-methyl-3H-imidazo[4,5-b]pyridin-5-yl)cyclopropanecarboxamide], 1 to 10 nM; under `Cc1nc2c(Nc3ccc(N4CCC4)cc3N(C)S(C)(=O)=O)cc(NC(=O)C3CC3)nc2[nH]1` [I-129, N-(7-((4-(azetidin-1-yl)-2-(N-methylmethylsulfonamido)phenyl)amino)-2-methyl-3H-imidazo[4,5-b]pyridin-5-yl)cyclopropanecarboxamide], 1 to 10 nM.
The compound `Cc1nc2c(Nc3ccc(Cl)cc3N(C)S(C)(=O)=O)cc(Nc3cnc(C)c(C)n3)nc2[nH]1` [I-130, N-(5-chloro-2-((5-((5,6-dimethylpyrazin-2-yl)amino)-2-methyl-3H-imidazo[4,5-b]pyridin-7-yl)amino)phenyl)-N-methylmethanesulfonamide] registered a Kd of 0.5 to 1 nM.
In turn, `Cc1ccc(Nc2cc(NC(=O)C3CC3)nc3[nH]c(C)nc23)c(N(C)S(C)(=O)=O)c1` [I-131, N-(2-methyl-7-((4-methyl-2-(N-methylmethylsulfonamido)phenyl)amino)-3H-imidazo[4,5-b]pyridin-5-yl)cyclopropanecarboxamide] yielded a Kd of 0.5 to 1 nM.
`Cc1ccc(Nc2cc(Nc3cnc(C)c(C)n3)nc3[nH]c(C)nc23)c(N(C)S(C)(=O)=O)c1` [I-132, N-(2-((5-((5,6-dimethylpyrazin-2-yl)amino)-2-methyl-3H-imidazo[4,5-b]pyridin-7-yl)amino)-5-methylphenyl)-N-methylmethanesulfonamide]: the Kd lay in the range of 0.1 to 0.5 nM.
With `COc1c(Nc2cc(NC(=O)C3CC3)nc3[nH]c(C)nc23)cccc1-c1nn(C)nc1C` [I-133, N-(7-((3-(2,5-dimethyl-2H-1,2,3-triazol-4-yl)-2-methoxyphenyl)amino)-2-methyl-3H-imidazo[4,5-b]pyridin-5-yl)cyclopropanecarboxamide], the Kd lay in the range of 1 to 10 nM.
As for `Cc1nc2c(Nc3ccc(Cl)cc3N(C)S(C)(=O)=O)cc(Nc3cccc(C#N)n3)nc2[nH]1` [I-134, N-(5-chloro-2-((5-((6-cyanopyridin-2-yl)amino)-2-methyl-3H-imidazo[4,5-b]pyridin-7-yl)amino)phenyl)-N-methylmethanesulfonamide], the dissociation constant (Kd) is 0.1 to 0.5 nM.
In the case of `Cc1cnn(-c2ccc(Nc3cc(NC(=O)C4CC4)nc4[nH]c(C(F)F)nc34)c(N(C)S(C)(=O)=O)c2)c1` [I-135, N-(2-(difluoromethyl)-7-((4-(4-methyl-1H-pyrazol-1-yl)-2-(N-methylmethylsulfonamido)phenyl)amino)-3-imidazo[4,5-b]pyridin-5-yl)cyclopropanecarboxamide] it was 0.1 to 0.5 nM; in that of `COc1ccccc1Nc1cc(Nc2ccc(N3CCC4(CCOCC4)CC3)cn2)nc2[nH]c(C(F)F)nc12` [I-136, N5-(5-(3-oxa-9-azaspiro[5.5]undecan-9-yl)pyridin-2-yl)-2-(difluoromethyl)-N7-(2-methoxyphenyl)-3H-imidazo[4,5-b]pyridine-5,7-diamine], greater than 10 nM.
Compound `COc1c(Nc2cc(Nc3cnc(C(C)(C)OC)c(C)n3)nc3[nH]c(C)nc23)cccc1-c1nnn(C)n1` [I-138, N7-(2-methoxy-3-(2-methyl-2H-tetrazol-5-yl)phenyl)-N5-(5-(2-methoxypropan-2-yl)-6-methylpyrazin-2-yl)-2-methyl-3H-imidazo[4,5-b]pyridine-5,7-diamines] registered a Kd of 1 to 10 nM.
Consider `Cc1ccn(-c2ccc(Nc3cc(NC(=O)C4CC4)nc4[nH]c(C(F)F)nc34)c(N(C)S(C)(=O)=O)c2)n1` [I-139, N-(2-(difluoromethyl)-7-((4-(3-methyl-1H-pyrazol-1-yl)-2-(N-methylmethylsulfonamido)phenyl)amino)-3H-imidazo[4,5-b]pyridin-5-yl)cyclopropanecarboxamide], for which the Kd was in the range of 0.5 to 1 nM.
Consider `COc1c(Nc2cc(NC(=O)C3CC3)nc3[nH]c(C(F)F)nc23)cccc1C(=O)O` [I-140, 3-((5-(cyclopropanecarboxamido)-2-(difluoromethyl)-3H-imidazo[4,5-b]pyridin-7-yl)amino)-2-methoxybenzoic acid], for which the Kd lay within 1 to 10 nM.
In the case of `COc1c(Nc2cc(NC(=O)C3CC3)nc3[nH]c(C)nc23)cccc1C(=O)O` [I-141, 3-((5-(cyclopropanecarboxamido)-2-methyl-3H-imidazo[4,5-b]pyridin-7-yl)amino)-2-methoxybenzoic acid] it was greater than 10 nM; in that of `COc1cc(-c2cncn2C)ccc1Nc1cc(NC(=O)C2CC2)nc2[nH]c(C(F)F)nc12` [I-142, N-(2-(difluoromethyl)-7-((2-methoxy-4-(1-methyl-1H-imidazol-5-yl)phenyl)amino)-3H-imidazo[4,5-b]pyridin-5-yl)cyclopropanecarboxamide], 1 to 10 nM.
As to `COc1cc(-c2cncn2C)ccc1Nc1cc(Nc2cccc(C#N)n2)nc2[nH]c(C(F)F)nc12` [I-143, 6-((2-(difluoromethyl)-7-((2-methoxy-4-(1-methyl-1H-imidazol-5-yl)phenyl)amino)-3H-imidazo[4,5-b]pyridin-5-yl)amino)picolinonitril], the Kd was 1 to 10 nM.

(Values after US10647713B2 (Nimbus Lakshmi, Inc., priority 2016, dated 2020).)
